These results are taken from patent US20200247800A1, “SUBSTITUTED BICYCLIC HETEROCYCLIC COMPOUNDS AS NADPH OXIDASE INHIBITORS” (Glenmark Pharmaceuticals S.A., priority 2017, published 2020).

Broadly, the inhibition is the change of the read-out against control, counted positive when it falls. By IC50 is commonly meant the concentration needed to halve the response being measured.

Structures are written as SMILES.

The test addresses T1, human NOX4 (Homo sapiens, UniProt Q9NPH5).
T1 construct: expressed in transfected cells; membrane fraction used
T1 sequence (Q9NPH5 1-578): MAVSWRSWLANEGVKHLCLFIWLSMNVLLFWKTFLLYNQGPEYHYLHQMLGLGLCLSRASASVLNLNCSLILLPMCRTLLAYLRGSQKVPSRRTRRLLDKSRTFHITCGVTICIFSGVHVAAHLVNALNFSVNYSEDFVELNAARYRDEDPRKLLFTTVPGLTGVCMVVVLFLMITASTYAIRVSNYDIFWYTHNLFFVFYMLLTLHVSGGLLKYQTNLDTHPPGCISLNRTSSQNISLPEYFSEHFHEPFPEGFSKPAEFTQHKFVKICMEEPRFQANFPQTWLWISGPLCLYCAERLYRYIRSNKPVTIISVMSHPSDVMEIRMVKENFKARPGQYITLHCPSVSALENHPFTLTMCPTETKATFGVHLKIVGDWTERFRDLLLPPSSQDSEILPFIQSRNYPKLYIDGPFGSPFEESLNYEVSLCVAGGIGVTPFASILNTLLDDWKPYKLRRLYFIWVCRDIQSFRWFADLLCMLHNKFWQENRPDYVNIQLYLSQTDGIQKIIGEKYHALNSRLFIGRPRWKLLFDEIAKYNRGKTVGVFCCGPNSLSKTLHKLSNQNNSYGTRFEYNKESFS
T1 sequence (P13498 1-195 partner): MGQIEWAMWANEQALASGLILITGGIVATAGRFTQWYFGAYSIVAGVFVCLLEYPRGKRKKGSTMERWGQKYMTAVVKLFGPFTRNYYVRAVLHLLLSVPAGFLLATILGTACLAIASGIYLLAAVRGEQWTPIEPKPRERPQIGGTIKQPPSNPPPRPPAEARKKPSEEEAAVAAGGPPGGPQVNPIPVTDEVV
Description: Cell free membrane based in vitro NOX4 assay: H2O2 production by membranes expressing human NOX4, measured with Amplex Red. It is filed as biochemical. As to conditions: for inhibition at 1 µM: 1.0 μM compound, read-out: Percentage inhibition at 1.0 μM; for inhibition at 10 µM: 10.0 μM compound, read-out: Percentage inhibition at 10.0 μM; for IC50: class symbols. The method in brief:
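IC50 came from concentration-response curves fitted as % of the inhibitor-free maximum. H2O2 formation was monitored for 10 min via Amplex Red/HRP fluorescence (544/590 nm) after NADPH start. Membranes from a stable hNOX4/HEK line had 20 min exposure to inhibitor beforehand at pH 7.4.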

For the compound `Cc1nn(CCN(C)C)c2[nH]c(-c3ccccc3Cl)c(O)c(=O)c12` [Example 80, 6-(2-Chlorophenyl)-1-(2-(dimethylamino)ethyl)-5-hydroxy-3-methyl-1H-pyrazolo[3,4-b]pyridin-4(7H)-one], the inhibition at 1 µM was found to be 94%, the inhibition at 10 µM came to 97.5% and the IC50 fell in the range of 0.05 to 0.1 µM.

Take `CCc1nn(CCn2cccn2)c2[nH]c(-c3c(F)cccc3F)c(O)c(=O)c12` [Example 158, 1-(2-(1H-pyrazol-1-yl)ethyl)-6-(2,6-difluorophenyl)-3-ethyl-5-hydroxy-1H-pyrazolo[3,4-b]pyridin-4(7H)-one]: the inhibition at 1 µM was 100%, the inhibition at 10 µM is 100% and the IC50 was below 0.05 µM.

For `C[C@@H]1CN(Cc2nn(C)c3[nH]c(-c4c(F)cccc4F)c(O)c(=O)c23)C[C@H](C)O1` [Example 197, 6-(2,6-Difluorophenyl)-3-((2,6-dimethylmorpholino)methyl)-5-hydroxy-1-methyl-1H-pyrazolo[3,4-b]pyridin-4(7H)-one], the inhibition at 1 µM was determined as 100%, the inhibition at 10 µM was found to be 100% and the IC50 lay within 0.1 to 0.15 µM.

Consider `Cc1nn(C)c2[nH]c(-c3c(F)cccc3F)c(O)c(=O)c12` [Example 13, 6-(2,6-Difluorophenyl)-5-hydroxy-1,3-dimethyl-1,7-dihydro-4H-pyrazolo[3,4-b]pyridin-4-one], for which the inhibition at 1 µM came to 99.6%, the inhibition at 10 µM was 98.7% and the IC50 was below 0.05 µM.

Regarding `CC(C)c1nn(C)c2[nH]c(-c3c(F)cccc3F)c(O)c(=O)c12` [Example 91, 6-(2,6-Difluorophenyl)-5-hydroxy-3-isopropyl-1-methyl-1H-pyrazolo[3,4-b]pyridin-4(7H)one], the inhibition at 1 µM was found to be 98.3%, the inhibition at 10 µM is 87.1% and the IC50 was 0.05 to 0.1 µM.

On to `CCc1nn(C)c2[nH]c(-c3ccccc3Cl)c(O)c(=O)c12` [Example 56, 6-(2-Chlorophenyl)-3-ethyl-5-hydroxy-1-methyl-1,7-dihydro-4H-pyrazolo[3,4-b]pyridin-4-one], for which the inhibition at 1 µM amounted to 82.4%, the inhibition at 10 µM amounted to 69.8% and the IC50 was below 0.05 µM.

Turning to `Cc1nn(-c2cccc(F)c2)c2[nH]c(-c3c(F)cccc3F)c(O)c(=O)c12` [Example 35, 6-(2,6-Difluorophenyl)-1-(3-fluorophenyl)-5-hydroxy-3-methyl-1,7-dihydro-4H-pyrazolo[3,4-b]pyridin-4-one], the inhibition at 1 µM came out at 100%, the inhibition at 10 µM came out at 100% and the IC50 was below 0.05 µM.

With `Cn1nc(CN2CCN(C3CC3)CC2)c2c(=O)c(O)c(-c3c(F)cccc3F)[nH]c21` [Example 216, 3-((4-Cyclopropylpiperazin-1-yl)methyl)-6-(2,6-difluorophenyl)-5-hydroxy-1-methyl-1H-pyrazolo[3,4-b]pyridin-4(7H)-one], the inhibition at 1 µM came out at 73.4%, the inhibition at 10 µM was determined as 88.3% and the IC50 was above 0.15 µM.

In the case of `COc1ccc(-c2[nH]c3c(c(C(F)(F)F)nn3C)c(=O)c2O)c(F)c1` [Example 47, 6-(2-Fluoro-4-methoxyphenyl)-5-hydroxy-1-methyl-3-(trifluoromethyl)-1,7-dihydro-4H-pyrazolo[3,4-b]pyridin-4-one], the inhibition at 1 µM is 100%, the inhibition at 10 µM was determined as 100% and the 50% inhibitory concentration (IC50) is 0.05 to 0.1 µM.

Regarding `CCc1nn(C)c2[nH]c(-c3cc(F)ccc3F)c(O)c(=O)c12` [Example 163, 6-(2,5-Difluorophenyl)-3-ethyl-5-hydroxy-1-methyl-1H-pyrazolo[3,4-b]pyridine-4(7H)-one], the inhibition at 1 µM turned out to be 72.8% and the IC50 is above 0.15 µM.

Take `CCc1nn(CCN2CCN(C)CC2)c2[nH]c(-c3cccc(C(F)(F)F)c3F)c(O)c(=O)c12` [Example 179, 3-Ethyl-6-(2-fluoro-3-(trifluoromethyl)phenyl)-5-hydroxy-1-(2-(4-methylpiperazin-1-yl)ethyl)-1H-pyrazolo[3,4-b]pyridin-4(7H)-one]: the inhibition at 1 µM worked out at 92.3% and the IC50 lay within 0.1 to 0.15 µM.

On to `CCn1nc(C)c2c(=O)c(O)c(-c3ccc(F)cc3)[nH]c21` [Example 112, 1-Ethyl-6-(4-fluorophenyl)-5-hydroxy-3-methyl-1,7-dihydro-4H-pyrazolo[3,4-b]pyridin-4-one], for which the inhibition at 1 µM is 44.1%.

In the case of `Cc1n[nH]c2[nH]c(-c3c(F)cccc3F)c(O)c(=O)c12` [Example 106, 6-(2,6-Difluorophenyl)-5-hydroxy-3-methyl-1,7-dihydro-4H-pyrazolo[3,4-b]pyridin-4-one], the inhibition at 1 µM came to 100%, the inhibition at 10 µM came out at 100% and the IC50 was 0.05 to 0.1 µM.

In the case of `Cc1nn(C2CC2)c2[nH]c(-c3c(F)cccc3Cl)c(O)c(=O)c12` [Example 124, 6-(2-Chloro-6-fluorophenyl)-1-cyclopropyl-5-hydroxy-3-methyl-1,7-dihydro-4H-pyrazolo[3,4-b]pyridin-4-one], the inhibition at 1 µM turned out to be 69.3%, the inhibition at 10 µM turned out to be 81.9% and the IC50 was above 0.15 µM.

In the case of `CCc1nn(CC)c2[nH]c(-c3c(F)cccc3F)c(O)c(=O)c12` [Example 103, 6-(2,6-Difluorophenyl)-1,3-diethyl-5-hydroxy-1,7-dihydro-4H-pyrazolo[3,4-b]pyridin-4-one], the inhibition at 1 µM was found to be 99.4%, the inhibition at 10 µM amounted to 100% and the IC50 is below 0.05 µM.

Regarding `Cc1nn(CCCO)c2[nH]c(-c3c(F)cccc3F)c(O)c(=O)c12` [Example 232, 6-(2,6-Difluorophenyl)-5-hydroxy-1-(3-hydroxypropyl)-3-methyl-1H-pyrazolo[3,4-b]pyridin-4(7H)-one], the inhibition at 1 µM was found to be 85.1%, the inhibition at 10 µM turned out to be 84.8% and the IC50 was in the range of 0.05 to 0.1 µM.

For `Cc1nn(C2CCCC2)c2[nH]c(-c3c(F)cccc3F)c(O)c(=O)c12` [Example 127, 1-Cyclopentyl-6-(2,6-difluorophenyl)-5-hydroxy-3-methyl-1,7-dihydro-4H-pyrazolo[3,4-b]pyridin-4-one], the inhibition at 1 µM was determined as 87.5%, the inhibition at 10 µM worked out at 89.5% and the IC50 is below 0.05 µM.

As to `COc1ccc(-c2[nH]c3c(c(C(F)(F)F)nn3C)c(=O)c2O)c(Cl)c1` [Example 48, 6-(2-Chloro-4-methoxyphenyl)-5-hydroxy-1-methyl-3-(trifluoromethyl)-1,7-dihydro-4H-pyrazolo[3,4-b]pyridin-4-one], the inhibition at 1 µM came out at 84.2%, the inhibition at 10 µM was 98.3% and the IC50 lay within 0.1 to 0.15 µM.

`Cn1nc(C(F)(F)F)c2c(=O)c(O)c(-c3ccc(Cl)cc3F)[nH]c21` [Example 52, 6-(4-Chloro-2-fluorophenyl)-5-hydroxy-1-methyl-3-(trifluoromethyl)-1,7-dihydro-4H-pyrazolo[3,4-b]pyridin-4-one]: the inhibition at 1 µM was found to be 75.8%, the inhibition at 10 µM was 94.9% and the half-maximal inhibitory concentration (IC50) was above 0.15 µM.

Turning to `CCc1nn(C)c2[nH]c(-c3cc(F)cc(F)c3)c(O)c(=O)c12` [Example 162, 6-(3,5-Difluorophenyl)-3-ethyl-5-hydroxy-1-methyl-1H-pyrazolo[3,4-b]pyridine-4(7H)-one], the inhibition at 1 µM came to 74.8% and the IC50 was above 0.15 µM.

Regarding `O=c1c(O)c(-c2ccccc2Cl)[nH]c2c1c(C(F)(F)F)nn2C1CCOCC1` [Example 130, 6-(2-Chlorophenyl)-5-hydroxy-1-(tetrahydro-2H-pyran-4-yl)-3-(trifluoromethyl)-1H-pyrazolo[3,4-b]pyridin-4(7H)-one], the inhibition at 1 µM turned out to be 69.6%, the inhibition at 10 µM came to 98.5% and the IC50 was above 0.15 µM.

On to `Cc1nn(CCN2CCCCC2)c2[nH]c(-c3ccccc3Cl)c(O)c(=O)c12` [Example 149, 6-(2-Chlorophenyl)-5-hydroxy-3-methyl-1-(2-(piperidin-1-yl)ethyl)-1H-pyrazolo[3,4-b]pyridin-4(7H)-one], for which the inhibition at 1 µM was found to be 79.1%, the inhibition at 10 µM turned out to be 74.7% and the IC50 is above 0.15 µM.

For the compound `CCc1nn(CCCN2CCOCC2)c2[nH]c(-c3c(F)cccc3F)c(O)c(=O)c12` [Example 175, 6-(2,6-Difluorophenyl)-3-ethyl-5-hydroxy-1-(3-morpholinopropyl)-1H-pyrazolo[3,4-b]pyridin-4(7H)-one], the inhibition at 1 µM was determined as 84%, the inhibition at 10 µM turned out to be 81.3% and the IC50 was in the range of 0.1 to 0.15 µM.

On to `Cc1nn(C2CC2)c2[nH]c(-c3cc(CNC(=O)C(C)(C)C)ccc3Cl)c(O)c(=O)c12` [Example 133, N-(4-Chloro-3-(1-cyclopropyl-5-hydroxy-3-methyl-4-oxo-4,7-dihydro-1H-pyrazolo[3,4-b]pyridin-6-yl)benzyl)pivalamide], for which the inhibition at 1 µM is 77.3%, the inhibition at 10 µM amounted to 88.8% and the IC50 is above 0.15 µM.
